Test results taken from patent US10596165B2, “Combination therapies” (resTORbio, Inc., priority 2018, dated 2020).

Columns and labels:
R6/2 brain slices [1] = test: polyQ density (immunohistochemical detection of PolyQ inclusions) in R6/2 corticostriatal slice cultures; assay type: cell-based, mouse; conditions: DIV14 to DIV21, read at DIV21, vs DMSO treated R6/2 slices
Experimental: (§1) Slice cultures were established according to described procedures. (L. Stoppini et al., J. Neurosci. Methods 37(2): 173-82 (1991) and N. Gogolla et al., Nat. Protoc. 1(3): 1165-71 (2006)). A particular cutting angle was utilized to produce brain slices with a preserved cortico-striatal pathway. Finally, slices were selected, placed on Millicel (Millipore, PICM03050) and cultured in 6-well dishes at 35° C. and 5% CO2 in the presence of 1 ml of culture medium.
(§2) Slices were treated with different mTOR inhibitors from DIV14 to DIV21. The culture medium was exchanged every second day, and drugs were added in the fresh culture medium. We used this protocol to evaluate the action of the following mTOR inhibitors: RTB101 (50 and 300 nM in DMSO), everolimus (250 nM in DMSO), CCG168 (300 nM in DMSO), and everolimus+RTB101 (250 and 10, 250and 30 and 250 and 50 nM in DMSO). […]
(§3) High resolution images were acquired on an upright Zeiss LSM700 confocal microscope, using a Plan-Neofluar 40x/1.3 oil immersion objective. For the quantification of the PolyQ density and DARPP-32/NeuF signal intensity, at least three confocal 3D stacks/slice were acquired in striatum for each experiment (five slices per condition), and analyzed using Imaris 4.2 (BitplaneAG) and Image J softwares. All data are expressed as mean±SEM. […]

R6/2 brain slices [2] = test: Striatal degeneration: DARPP-32 intensity and neurofilament levels in R6/2 slice cultures; assay type: cell-based, mouse; conditions: single low-concentrations (everolimus 250 nM; RTB101 50 nM), DIV21
Experimental: as §1, §2, §3

Row | Compound | polyQ density (R6/2 brain slices [1]; 50 nM RTB101 single treatment) | DARPP-32 level (R6/2 brain slices [2]) | neurofilament level (R6/2 brain slices [2]) | polyQ density (R6/2 brain slices [1]; 250 nM everolimus single treatment)
1 | Cn1c(=O)n(-c2ccc(C(C)(C)C#N)cc2)c2c3cc(-c4cnc5ccccc5c4)ccc3ncc21 [RTB101, 2-methyl-2-[4-(3-methyl-2-oxo-8-quinolin-3-yl-2,3-dihydro-imidazo[4,5-c]quinolin-1-yl)-phenyl]-propionitrile] | no effect | – | – | –
2 | CO[C@H]1C[C@@H]2CC[C@@H](C)[C@@](O)(O2)C(=O)C(=O)N2CCCC[C@H]2C(=O)O[C@H]([C@H](C)C[C@@H]2CC[C@@H](OCCO)[C@H](OC)C2)CC(=O)[C@H](C)/C=C(\C)[C@@H](O)[C@@H](OC)C(=O)[C@H](C)C[C@H](C)/C=C/C=C/C=C/1C [everolimus, (1R,9S,12S,15R,16E,18R,19R,21R,23S,24E,26E,28E,30S,32S,35R)-1,18-dihydroxy-12-{(1R)-2-[(1S,3R,4R)-4-(2-hydroxyethoxy)-3-methoxycyclohexyl]-1-methylethyl}-19,30-dimethoxy-15,17,21,23,29,35-hexamethyl-11,36-dioxa-4-aza-tricyclo[30.3.1.04,9]hexatriaconta-16,24,26,28-tetraene-2,3,10,14,20-pentaone] | – | ineffective | ineffective | no effect
